Each block holds one molecule with its values, some of them ahead of it.
Experiments:
recombinant ATX = recombinant ATX (Homo sapiens, UniProt Q13822); experiment: Choline release assay; type: biochemical; settings: for residual ATX activity: at maximal inhibition in the dose-response curve (Figure S3)
ATX = ATX activity fully restored upon washing out the inhibitor; cited from earlier work
[1] = cited from earlier work

Molecule: O=C(Nc1ccc(B(O)O)cc1)c1ccc(/C=C2\SC(=O)N(Cc3ccc(F)cc3)C2=O)cc1 [inhibitor 17]
shape of dose-response curve (recombinant ATX; Figure S2, n=5): biphasic curve

Molecule: O=C1S/C(=C\c2ccc(OCc3ccc(B(O)O)cc3)cc2)C(=O)N1Cc1ccc(F)cc1 [inhibitor 1, (Z)-4-[(4-{[3-(4-Fluorobenzyl)-2,4-dioxo-1,3-thiazolan-5-yliden]methyl}phenoxy)methyl]benzene Boronic Acid]
reversibility of binding to ATX (ATX): reversible

Molecule: lysophosphatidic acid [LPA]
half-life of LPA in vivo [1]: ~5 min

The remaining lines, values ahead:

residual ATX activity (recombinant ATX): no residual ATX activity
Molecule: O=C1S/C(=C\c2ccc(NCc3ccc(B(O)O)cc3)cc2)C(=O)N1Cc1ccc(F)cc1 [inhibitor 36]

residual ATX activity (recombinant ATX): 10%
Molecule: O=C(Nc1ccc(/C=C2\SC(=O)N(Cc3ccc(F)cc3)C2=O)cc1)c1ccc(B(O)O)cc1 [inhibitor 19]

Reference: article PMC3131786 (Journal of Medicinal Chemistry, 2011)
